The record followed here is ChEMBL document CHEMBL6083239, “Synthesis, optimization and antitumor activity evaluation of sulfonyl benzoyl hydrazide derivatives as novel human LSD1 inhibitors” (Bioorg Med Chem Lett, 2024).

pIC50: −log10 of the molar value. Converted amounts (≈) assume the structure as drawn.

Data set [1] concerns A2780. Put plainly: Antiproliferative activity against human A2780 cells by MTT assay.
Data set [2] concerns HCT-116. Description: Antiproliferative activity against human HCT-116 cells by MTT assay.
The test system of data set [3] is MDA-MB-231. Put plainly: cells. Conditions: Homo sapiens; call rule not given here.
For data set [4], the system named is MCF7. Description: cells. As to conditions: Homo sapiens.
Description: Antiproliferative activity against human MCF7 cells by MTT assay
In data set [5] the test system is DU-145. Put plainly: Antiproliferative activity against human DU-145 cells by MTT assay.
The nature of data set [6]: Solubility of compound. It counts as physicochemical.
In data set [7] the test system is A549. Put plainly: cells. As to conditions: Homo sapiens.
Description: Antiproliferative activity against human A549 cells by MTT assay
The test system of data set [8] is HCT-116. Put plainly: Induction of apoptosis in human HCT-116 cells assessed as early apoptotic cells at 0.25 uM by Annexin V-FITC/PI staining based assay (reference value: 1.82%). It counts as functional.
Data set [9] in a line: Toxicity in nude mouse xenografted with human HCT-116 cells assessed as change in body weight at 60 mg/kg, ip. It counts as organism-based. As to conditions: in vivo.
The test system of data set [10] is HCT-116. Description: Induction of cell cycle arrest in human HCT-116 cells assessed as increase in S-phase cells. It counts as functional, cell-based.
For data set [11], the system named is HCT-116. Put plainly: Induction of apoptosis in human HCT-116 cells assessed as necrotic cells at 0.5 uM by Annexin V-FITC/PI staining based assay (reference value: 1.05%). It counts as functional.
In data set [12] the test system is HCT-116. Description: Upregulation of H3K4me1 expression in human HCT-116 cells at 0.125 to 0.5 uM. It counts as functional, cell-based. Conditions: dose 0.125-0.5 µM.
The test system of data set [13] is HCT-116. Put plainly: Upregulation of H3K4me2 expression in human HCT-116 cells at 0.125 to 0.5 uM. It counts as functional, cell-based. Conditions: dose 0.125-0.5 µM.
For data set [14], the system named is HCT-116. Description: Antiproliferative activity against human HCT-116 cells assessed as reduction in EdU positive cells at 0.25 uM. It counts as functional, cell-based.
Data set [15] relates to HCT-116. Put plainly: Induction of cell cycle arrest in human HCT-116 cells assessed as increase in S-phase cells at 0.5 uM. It counts as functional.
In data set [16] the test system is HCT-116. Put plainly: Induction of apoptosis in human HCT-116 cells assessed as necrotic cells at 0.125 uM by Annexin V-FITC/PI staining based assay (reference value: 1.05%). It counts as functional.
Data set [17] concerns HCT-116. Put plainly: Induction of apoptosis in human HCT-116 cells assessed as viable cells at 0.125 uM by Annexin V-FITC/PI staining based assay (reference value: 96.76%). Conditions: read-out: Activity. It counts as functional.
In data set [18] the test system is HCT-116. Put plainly: Induction of apoptosis in human HCT-116 cells assessed as necrotic cells at 0.25 uM by Annexin V-FITC/PI staining based assay (reference value: 1.05%). It counts as functional.
Data set [19] relates to HCT-116. Description: Induction of apoptosis in human HCT-116 cells assessed as late apoptotic cells at 0.125 uM by Annexin V-FITC/PI staining based assay (reference value: 0.37%). It counts as functional.
Data set [20] relates to HCT-116. Put plainly: Induction of apoptosis in human HCT-116 cells assessed as viable cells at 0.25 uM by Annexin V-FITC/PI staining based assay (reference value: 96.76%). It counts as functional. Conditions: read-out: Activity.
The test system of data set [21] is HCT-116. Description: Induction of apoptosis in human HCT-116 cells assessed as early apoptotic cells at 0.125 uM by Annexin V-FITC/PI staining based assay (reference value: 1.82%). It counts as functional.
For data set [22], the system named is HCT-116. Put plainly: Induction of apoptosis in human HCT-116 cells assessed as late apoptotic cells at 0.25 uM by Annexin V-FITC/PI staining based assay (reference value: 0.37%). It counts as functional.
Data set [23] relates to HCT-116. Put plainly: Induction of apoptosis in human HCT-116 cells assessed as early apoptotic cells at 0.5 uM by Annexin V-FITC/PI staining based assay (reference value: 1.82%). It counts as functional.
Data set [24] relates to HCT-116. Put plainly: Induction of apoptosis in human HCT-116 cells assessed as viable cells at 0.5 uM by Annexin V-FITC/PI staining based assay (reference value: 96.76%). As to conditions: read-out: Activity. It counts as functional.
In data set [25] the test system is HCT-116. Put plainly: Antitumor activity against human HCT-116 cells xenografted in nude mouse assessed as tumor growth inhibition at 60 mg/kg, ip measured every 3 days. It counts as functional. Further details: scale not given: the % may be the effect or the level left.
Data set [26] concerns HCT-116. Description: Induction of apoptosis in human HCT-116 cells assessed as late apoptotic cells at 0.5 uM by Annexin V-FITC/PI staining based assay (reference value: 0.37%). It counts as functional.
The subject of data set [27] is HCT-116. Put plainly: Induction of apoptosis in human HCT-116 cells assessed as early apoptotic cells at 2 uM by Annexin V-FITC/PI staining based assay (reference value: 1.82%). It counts as functional.
Data set [28] has as its system HCT-116. Description: Induction of apoptosis in human HCT-116 cells assessed as necrotic cells at 1 uM by Annexin V-FITC/PI staining based assay (reference value: 1.05%). It counts as functional.
Data set [29] relates to HCT-116. Put plainly: Induction of apoptosis in human HCT-116 cells assessed as viable cells at 2 uM by Annexin V-FITC/PI staining based assay (reference value: 96.76%). It counts as functional. As to conditions: read-out: Activity.
In data set [30] the test system is HCT-116. Description: Induction of apoptosis in human HCT-116 cells assessed as early apoptotic cells at 1 uM by Annexin V-FITC/PI staining based assay (reference value: 1.82%). It counts as functional.
Data set [31] relates to HCT-116. Description: Induction of apoptosis in human HCT-116 cells assessed as necrotic cells at 2 uM by Annexin V-FITC/PI staining based assay (reference value: 1.05%). It counts as functional.
The test system of data set [32] is HCT-116. Put plainly: Induction of apoptosis in human HCT-116 cells assessed as late apoptotic cells at 1 uM by Annexin V-FITC/PI staining based assay (reference value: 0.37%). It counts as functional.
Data set [33] has as its system HCT-116. Put plainly: Induction of apoptosis in human HCT-116 cells assessed as late apoptotic cells at 2 uM by Annexin V-FITC/PI staining based assay (reference value: 0.37%). It counts as functional.
The subject of data set [34] is HCT-116. Description: Induction of apoptosis in human HCT-116 cells assessed as viable cells at 1 uM by Annexin V-FITC/PI staining based assay (reference value: 96.76%). As to conditions: read-out: Activity. It counts as functional.

Take `CC1COCC(C)N1S(=O)(=O)c1cccc(C(=O)N/N=C2\CCc3c(Cl)ccc(O)c32)c1` (centres undefined): the pIC50 in data set [1] is 6.30; in [2], 6.30; in data set [3], 6.05; in [4], 6.22; in data set [5], 5.04; in [7], 6.30. Besides, in [6], the solubility is 23.9 µg/mL (≈ 50 µM).

As to `CC1COCC(C)N1S(=O)(=O)c1cccc(C(=O)N/N=C2\CCc3cccc(O)c32)c1` (centres undefined), the pIC50 in data set [1] is 6.15; in [2], 6.15; in data set [3], 6.00; in data set [4], 6.52; in [5], 4.93; in data set [7], 6.52. Besides, in data set [6], the solubility is 30.2 µg/mL (≈ 68.1 µM).

As for `CC1COCC(C)N1S(=O)(=O)c1cccc(C(=O)N/N=C2\CCc3c(O)ccc(O)c32)c1` (centres undefined), the Activity in data set [8] was 17.28%; in data set [9], “Non-toxic”; in [10], “Dose-dependent-effect”; in data set [11] it was 2%; in [12], “Active; Slight Increase Observed”; in data set [13], “Active; Slight Increase Observed”. In addition, the Activity result is recorded as “Active; At High Concentration Showed More Potent Activity Than Sp-2577” in data set [14]; 71% in data set [15]; 0.69% in [16]; 1.28% in data set [18]; 2.73% in data set [19]; 10.47% in data set [21]. For the same compound, the Activity in [22] was determined as 1.71%; in data set [23] it was 25.6%; in data set [25], 75%; in data set [26], 2.15%. For the same compound, the negative logarithm of the IC50 (pIC50) in [1] is 6.05; in [2] it was 7.00; in [3], 6.10; in [4] it was 7.00; in data set [5], 5.64; in data set [7] it was 6.52. In addition, the viability at 0.125 µM in data set [17] amounted to 86.1%. In addition, in data set [20], the viability at 0.25 µM was 79.7%. Besides, the viability at 0.5 µM in data set [24] was 70.2%. The same compound came in with a solubility in data set [6] of 77.2 µg/mL (≈ 168 µM).

Turning to `O=C(N/N=C1\CCc2c(O)ccc(O)c21)c1cccc(S(=O)(=O)N2CCOCC2)c1`, the pIC50 in [1] was 5.80; in data set [2], 6.05; in data set [3] it was 5.49; in [4], 6.22; in data set [5] it was 5.12; in [7], 5.85. Besides, the solubility in [6] came out at 46.9 µg/mL (≈ 109 µM).

`O=C(N/N=C1\CCc2c(Cl)ccc(O)c21)c1cccc(S(=O)(=O)N2CCOCC2)c1`: the pIC50 in data set [2] was 6.30; in [3], 5.55; in [4] it was 6.30; in [5] it was 5.60; in data set [7], 6.00. In data set [6], this compound had a solubility of 29 µg/mL (≈ 64.5 µM).

Consider `O=C(N/N=C1\CCc2cccc(O)c21)c1cccc(S(=O)(=O)N2CCOCC2)c1`, for which the pIC50 in data set [1] is 6.05; in [2] it was 6.40; in data set [3] it was 5.54; in data set [5], 5.72; in data set [7], 6.05. In addition, the concentration in solution in data set [6] (solubility) came to 27.9 µg/mL (≈ 67.2 µM).

`C/C(=N\NC(=O)c1cccc(S(=O)(=O)N2CCN(C)CC2)c1)c1cc(Cl)ccc1O` [SECLIDEMSTAT]: the Activity in [27] turned out to be 5.44%; in data set [11], 2.48%; in data set [28] it was 1.32%; in data set [15], 63%; in data set [30], 4.56%; in data set [31] it was 1.87%. The Activity in [32] is 0.64%; in data set [33], 0.97%; in data set [23] it was 3.22%; in data set [26], 2.16%. For the same compound, the pIC50 is 5.62 in [1]; 6.22 in data set [2]; 5.96 in data set [3]; 6.40 in [4]; 4.98 in data set [5]; 5.57 in data set [7]. In addition, the viability at 2 µM in [29] worked out at 91.7%. Further, the viability at 0.5 µM in data set [24] amounted to 92.1%. The viability at 1 µM in [34] came to 93.5%. The solubility in [6] worked out at 35.7 µg/mL (≈ 79.2 µM).
